Measured values from patent US20060148772A1, “Combination” (priority 2004, published 2006).
Entries after “also recorded” stand apart in the source; their conditions may differ.

How the values were obtained:
MCF7A2 cell line = experiment: Cell cycle FACS analysis (propridium iodide), MCF7A2; type: cell-based, Human; details: MCF7A2, androstenedione, 72 hours
Description: (§1) Cell lines were depleted of steroid for 3 days in DCC medium then seeded in 10 cm dishes at a density of 1×10^6 cells. After 48 hours, appropriate monolayers were pretreated with 6-[4-(4-ethyl-piperazin-1-ylmethyl)-phenyl]-7H-pyrrolo[2,3-d]pyrimidin-4-yl}-(1-[phenyl-ethyl)-amine for 1 hour in DCC medium. […] In the case of MCF7 and ZR75.1 the 6-[4-(4-ethyl-piperazin-1-ylmethyl)-phenyl]-7H-pyrrolo[2,3-d]pyrimidin-4-yl}-(1-[phenyl-ethyl)-amine concentration was increased to 5 μM. Cell were treated for 72 hours then fixed with 70% ethanol and stained with Propridium iodide. FACS analysis was used to establish the effect of the drug combinations on cell cycle.

BT474 (ER+, HER2++) = experiment: Proliferation assay, aromatase expressing BT474 clones; type: cell-based, Human; details: for proliferation response to increasing doses (fold change): BT474 aromatase clones, versus DCC medium alone (E2, androstenedione) or androstenedione alone (4-OH tamoxifen, letrozole); for IC50: Homo sapiens
Description: (§2) Human breast cancer cell lines with varying expression of ER and HER2 were engineered to express aromatase. The cell lines were MCF7 (ER+,HER2−), ZR75.1 (ER+,HER2+), BT474 (ER+, HER2++) and SKBR3 (ER−, HER2++).
(§3) Proliferation assays were carried out as follows. The target cell lines listed above were cultured in phenol red-free RPMI 1640 medium containing 10% charcoal stripped foetal calf serum and 10[…]g.ml insulin (DCC medium), with daily changes for 3 days. The cell lines were then seeded in to 12-well plates at an appropriate density (MCF7 1×10^4/well, ZR75.1 2×10^4/well, BT474 2×10^4/well, SKBR3 1×10^4/well). After 24-48 hours, the cell monolayers were treated with increasing concentrations of androstenedione or E2. […] Drug treatments were changed daily over a period of 6 days. Cell number was determined using a Z1 Coulter Counter (Beckman Coulter, UK). With the threshold set at 15 μm diameter, 75% the average 20 μm size of MCF7 cells.

ZR75.1 tumour xenografts = experiment: Growth of ZR75.1 tumour xenografts in vivo; design: species or system Mice; details: ZR75.1A3 xenografts under androstenedione, p.o.
Description: Experimental study groups consisted of 6 animals. All tumours were grown to approximately 7 mm diameter under E2 support. Once the tumours were established, the E2 pellet was removed and replaced with androstenedione. Mice were then randomised into cages and treated as described below. Tumours were assessed twice weekly by bi-dimensional caliper measurements and volume calculated based on the volume of a sphere 4/3 […]. Data was expressed as fold change in tumour volume compared to day zero treatment for each treatment group.
Effect of 6-[4-(4-ethyl-piperazin-1-ylmethyl)-phenyl]-7H-pyrrolo[2,3-d]pyrimidin-4-yl}-(1-[phenyl-ethyl)-amine in combination with endocrine therapy was investigated in ZR75.1A3.
Groups: • (i) Vehicle (10% N-methyl-pyrollidone (NMP)/90% polyethylene glycol (PEG 300)).

ZR75.1 (ER+,HER2+) = experiment: Proliferation assay, aromatase expressing ZR75.1 clones; type: cell-based, Human; details: for IC50: Homo sapiens; for proliferation response to increasing doses (fold change): ZR75.1 aromatase clones, versus DCC medium alone (E2, androstenedione) or androstenedione alone (4-OH tamoxifen, letrozole)
Description: as §2, §3

MCF7 (ER+,HER2−) = experiment: Proliferation assay, aromatase expressing MCF7 clones; type: cell-based, Human; details: for IC50: Homo sapiens; for proliferation response to increasing doses (fold change): MCF7 aromatase clones, versus DCC medium alone (E2, androstenedione) or androstenedione alone (4-OH tamoxifen, letrozole)
Description: as §2, §3

[1] = test system: ER-α-mediated transcription; experiment: ERα transactivation luciferase reporter assay (pEREtkIIluc); type: cell-based, Human
Description: ERα transactivation was monitored using a standard reporter construct consisting of two EREs upstream of a minimal thymidine kinase reporter linked to a gene encoding luciferase (pEREtkIIluc). Activity was normalized using a second plasmid consisting of the β-galactosisdase gene downstream of the constitutively active simian virus 40 promoter (SV40)(pCH110). The target cell lines indicated, were cultured in DCC medium as described previously. Cells were then seeded into 24-well plates at a density of 7×10^5 cells/well (MCF7, ZR75.1 and SKBR3). The following day the cells were transfected by lipofectin (Life Technologies, Inc.) at a ratio of 1:2.5 (DNA:lipid) with 0.25 μg of EREIItkluc and 0.25 μg of pCH110 for 4 hours in serum-free phenol red-free RPMI 1640 medium. The cells were subsequently placed in DCC medium and left to recover overnight. BT474 cells were treated similarly but with the exception that cells were seeded at a density of 1×10^5 cells/well and monolayers were transfected by lipofectamine 2000 (Life Technologies, Inc.) at a ratio of 1:2.5 with 0.4 μg pEREtkIIluc and 0.4 μg pCH110 per well for 4 hours. […] After treatment for 24 hours, the luciferase (Promega, UK) and β-galactosidase (Galacton Star, PE Biosystems, UK) activity were measured using a luminometer.

BT474 A3 = experiment: Cell cycle FACS analysis (propridium iodide), BT474 A3; type: cell-based, Human; details: BT474 A3, androstenedione, 72 hours
Description: as §1

SKBR3 (ER−, HER2++) = experiment: Proliferation assay, SKBR3 clones; type: cell-based; details: Homo sapiens, SK-BR-3; effect on proliferation, fold change compared to DCC medium alone
Description: as §2
as §3, with “cells. Cell counts were averaged for each triplicate treatment and normalised against the control sample to give the average fold-difference in cell growth.” for “cells.”

pMAPK = experiment: Western blot of HER2 signal transduction: MAPK; type: cell-based, Human; details: 0.1, 1 and 10 μM, 8 hours
Description: (§4) Western Blot analysis of the effect of 6-[4-(4-ethyl-piperazin-1-ylmethyl)-phenyl]-7H-pyrrolo[2,3-d]pyrimidin-4-yl}-(1-[phenyl-ethyl)-amine on HER2 signal transduction.
(§5) Target cell lines were stripped of steroid for 3 days in DCC medium prior to seeding at a density of 1.5-2×10^6 cells per 10 cm dish. Monolayers were left to acclimatize for 24 hours prior to treatment with 0, 0.1, 1 and 10 μM 6-[4-(4-ethyl-piperazin-1-ylmethyl)-phenyl]-7H-pyrrolo[2,3-d]pyrimidin-4-yl}-(1-[phenyl-ethyl)-amine in DCC medium for 8 hours. […] The protein concentration was then quantified using BioRad protein assay kit (Bio Rad, UK). […] Filters were blocked (10 mM Tris-HCl, pH 8.3, 150 mM NaCl containing 4% milk powder) washed twice in PBS containing 0.025% Tween-20 and probed with specific antibodies (p HER2 and total HER2 (Upstate, UK), pAKT, total AKT, pMAPK and total MAPK (Cell signaling, UK) and HRP-conjugated secondary antibody (Amersham Pharmacia Biotech, UK). The antibodies were diluted 1/1000 in 1.5% bovine serum albumin, 10 mM Tris-HCl, pH 8.3, 150 mM NaCl, 0.025% Tween-20 and 0.01% sodium azide. Immuno complexes were detected using Ultra-Signal chemiluminescence kit (Pierce and Warriner, UK). Chemiluminescence was quantified using Fluro-S and analysed using Quantity One software (BioRad, UK).

total or pHER2 = experiment: Western blot of HER2 signal transduction: HER2; type: cell-based, Human; details: 0.1, 1 and 10 μM, 8 hours
Description: as §4, §5

pAKT = experiment: Western blot of HER2 signal transduction: AKT; type: cell-based, Human; details: all of the cell lines tested; 0.1, 1 and 10 μM, 8 hours
Description: as §4, §5

Structure (SMILES) | number of cells in G0/G1 (MCF7A2 cell line) | proliferation response to increasing doses (fold change) (BT474 (ER+, HER2++)) | tumour growth / tumour volume (fold change compared to day zero) (ZR75.1 tumour xenografts) | proliferation response to increasing doses (fold change) (ZR75.1 (ER+,HER2+)) | proliferation response to increasing doses (fold change) (MCF7 (ER+,HER2−)) | ER-α-mediated transcription ([1]; ER+ cell lines) | number of cells in G0/G1 (BT474 A3) | further results
N#Cc1ccc(C(c2ccc(C#N)cc2)n2cncn2)cc1 [Letrozole, 4-[α-(4-cyanophenyl)-1-(1,2,4-triazolyl)methyl]-benzonitrile] | increase in the number of cells in G0/G1 | dose dependent decrease in proliferation | markedly inhibited; also recorded: more effective than 4-OH tamoxifen alone or in combination with AEE788 | dose dependent decrease in proliferation | dose dependent decrease in proliferation | inhibited | more effective than tamoxifen at arresting cells in G0/G1 | IC50 (BT474 (ER+, HER2++); BT-474, 144 h, inhibition of proliferation, aromatase expressing clones, androstenedione, 6 days): 0.005 µM; IC50 (ZR75.1 (ER+,HER2+); ZR-75-1, 144 h, inhibition of proliferation, aromatase expressing clones, androstenedione, 6 days): 0.001 µM; IC50 (MCF7 (ER+,HER2−); MCF7, 144 h, inhibition of proliferation, aromatase expressing clones, androstenedione, 6 days): 0.005 µM
C[C@]12CCC(=O)C=C1CC[C@@H]1[C@@H]2CC[C@]2(C)C(=O)CC[C@@H]12 [androstenedione] | – | dose dependent increase in proliferation | – | dose dependent increase in proliferation | dose dependent increase in proliferation | increased ER-[…]-mediated transcription in a dose-dependent manner | – | –
CCN1CCN(Cc2ccc(-c3cc4c(N[C@H](C)c5ccccc5)ncnc4[nH]3)cc2)CC1 [{6-[4-(4-ethyl-piperazin-1-ylmethyl)-phenyl]-7H-pyrrolo[2,3-d]pyrimidin-4-yl}-(1-[phenyl-ethyl)-amine] | increase in the number of cells in G0/G1 | – | modest inhibitory effect on tumour growth in the magnitude of that seen with tamoxifen | – | – | – | more effective than tamoxifen at arresting cells in G0/G1 | IC50 (SKBR3 (ER−, HER2++)): 1.5 µM; effect on pMAPK (pMAPK; MCF7 cells): no effect on MCF7 cells; effect on pMAPK (pMAPK; ZR75.1, BT474 and SKBR3 cell lines): decrease of pMAPK; effect on total or pHER2 (total or pHER2): no obvious effect on total or pHER2; IC50 (BT474 (ER+, HER2++); BT-474, effect on proliferation, fold change compared to DCC medium alone): 0.5 µM; effect on pAKT (pAKT): decreased in a dose dependent manner; IC50 (ZR75.1 (ER+,HER2+); ZR-75-1, effect on proliferation, fold change compared to DCC medium alone): 2 to 5 µM; IC50 (MCF7 (ER+,HER2−); MCF7, effect on proliferation, fold change compared to DCC medium alone): 5 to 10 µM; ER-α-mediated transcription ([1]; cell line BT474 (ER+, HER2++), basal and AND-induced): dose dependent decrease; ER-mediated transcription ([1]; cell lines expressing low levels of HER2 (MCF7 and ZR75.1)): little effect
CC/C(=C(\c1ccc(O)cc1)c1ccc(OCCN(C)C)cc1)c1ccccc1 [4-OH tamoxifen] | – | dose dependent decrease in proliferation | as affective as AEE788 | dose dependent decrease in proliferation | dose dependent decrease in proliferation | – | – | –
C[C@]12CC[C@@H]3c4ccc(O)cc4CC[C@H]3[C@@H]1CC[C@@H]2O [E2] | – | dose dependent increase in proliferation | – | dose dependent increase in proliferation | dose dependent increase in proliferation | increased ER-[…]-mediated transcription in a dose-dependent manner | – | –
CC/C(=C(\c1ccccc1)c1ccc(OCCN(C)C)cc1)c1ccccc1 [Tamoxifen] | increase in the number of cells in G0/G1 | – | – | – | – | inhibited | – | –
